Reference: patent US10077261B2, “Imidazolin-5-one derivative useful as FASN inhibitors for the treatment of cancer” (Janssen Pharmaceutica NV, priority 2012, dated 2018)

What was measured:
A2780 ovarian cells [1] = assay: A2780 ovarian cell proliferation assay in lipid reduced medium, with palmitate (MTT); assay type: cell-based; details: Homo sapiens, A2780, 96 h; read-out: pIC50 A2780 Ovarian Cell, With Palmitate (converted)
In short: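 Seeded cells were switched next day to lipid-reduced serum, exposed to compound and 25 μM palmitate complexed with fatty-acid-free BSA, and incubated 96 h. Proliferation was then determined by MTT absorbance at 544 nm, with a best-fit curve of signal against concentration.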

A2780 ovarian cells [2] = assay: A2780 ovarian cell proliferation assay in lipid reduced medium, without palmitate (MTT); assay type: cell-based; details: Homo sapiens, A2780, 96 h; read-out: pIC50 A2780 Ovarian Cell, Without Palmitate (converted)
[3] = tested on: LNCaP-Vancouver prostate cells; assay: In vitro LNCaP Vancouver prostate cell proliferation assay in lipid reduced medium; assay type: cell-based; details: read-out: pIC50 LNCaP_Vancouver prostate cell (converted)
Description: LNCaP-Vancouver prostate cells were obtained from the Vancouver Prostate Cancer Centre. Cells were maintained in RPMI-1640, 10% Fetal Calf Serum (FCS, Hyclone), 2 mM glutamine and 50 μg/ml Gentamicin.
For the proliferation experiment 1500 LNCaP-Vancouver cells per well were seeded in a 384-well black with clear bottom plate (costar 3712BC) in 40 μl RPMI-1640, 10% Lipid reduced serum (LRS, Hyclone), 50 μg/ml Gentamicin and 2 mM Glutamine and incubated at 37° C., 5% CO2. The next day 10 μl of test compound/DMSO diluted in medium was added (3E-5M, 1E-5M, 3E-6M, 1E-6M, 3E-7M, 1E-7M, 3E-8M, 1E-8M final concentration). Compounds were tested in duplicate. After 96 h incubation at 37° C., 5% CO2 25 μl ATP-glow mix was added. The plate was incubated for 30 min at 37° C. and luminescence was measured with the Envision.
Analysis: Determination of pIC50 Values
pIC50 values were calculated as follows.
where mLC and mHC are the means of the low control wells and high control wells on the plate, after manual exclusion of outliers. The relation between the % Controlmin values and concentration was fitted to a 4-parameter logistic curve using a non-linear least squares regression method to determine the pIC50 value. Outlying data points were excluded manually to get a correct fit. The pIC50 corresponds to −log 10(IC50), if the IC50 is expressed in molar units (http://www.ncbi.nlm.nih.gov/books/NBK91994). The IC50 parameter was always determined by non-linear regression, but one or more of the other parameters may have been held fixed on a relevant input value, such as 0 for the bottom values.
For dose response curves with FASN inhibitors in LNCaP-Vancouver or PC-3M-Luc-C6 cells the curves bottom out around 30 to 40% of the control value. A standard fit PL2, forcing the lower bound to this level was used.
Representative compounds of the present invention were tested according to the procedure as described in Biological Example 4a and 4b above, with results as listed in Table 9, below.

[4] = target: T1, hFASN enzyme (full length) (Homo sapiens, UniProt P49327); assay: Fatty Acid Synthase (FASN) inhibition scintillation proximity assay; assay type: biochemical; details: for inhibition at 10 µM: read-out: Human FASN % inhibition @ 10 μM, 10 μM test compound; for IC50: read-out: Human FASN pIC50 (converted)
T1 construct: 10 μL hFASN enzyme (full length, 300 ng, purified in house); made in house
T1 sequence (P49327 whole entry): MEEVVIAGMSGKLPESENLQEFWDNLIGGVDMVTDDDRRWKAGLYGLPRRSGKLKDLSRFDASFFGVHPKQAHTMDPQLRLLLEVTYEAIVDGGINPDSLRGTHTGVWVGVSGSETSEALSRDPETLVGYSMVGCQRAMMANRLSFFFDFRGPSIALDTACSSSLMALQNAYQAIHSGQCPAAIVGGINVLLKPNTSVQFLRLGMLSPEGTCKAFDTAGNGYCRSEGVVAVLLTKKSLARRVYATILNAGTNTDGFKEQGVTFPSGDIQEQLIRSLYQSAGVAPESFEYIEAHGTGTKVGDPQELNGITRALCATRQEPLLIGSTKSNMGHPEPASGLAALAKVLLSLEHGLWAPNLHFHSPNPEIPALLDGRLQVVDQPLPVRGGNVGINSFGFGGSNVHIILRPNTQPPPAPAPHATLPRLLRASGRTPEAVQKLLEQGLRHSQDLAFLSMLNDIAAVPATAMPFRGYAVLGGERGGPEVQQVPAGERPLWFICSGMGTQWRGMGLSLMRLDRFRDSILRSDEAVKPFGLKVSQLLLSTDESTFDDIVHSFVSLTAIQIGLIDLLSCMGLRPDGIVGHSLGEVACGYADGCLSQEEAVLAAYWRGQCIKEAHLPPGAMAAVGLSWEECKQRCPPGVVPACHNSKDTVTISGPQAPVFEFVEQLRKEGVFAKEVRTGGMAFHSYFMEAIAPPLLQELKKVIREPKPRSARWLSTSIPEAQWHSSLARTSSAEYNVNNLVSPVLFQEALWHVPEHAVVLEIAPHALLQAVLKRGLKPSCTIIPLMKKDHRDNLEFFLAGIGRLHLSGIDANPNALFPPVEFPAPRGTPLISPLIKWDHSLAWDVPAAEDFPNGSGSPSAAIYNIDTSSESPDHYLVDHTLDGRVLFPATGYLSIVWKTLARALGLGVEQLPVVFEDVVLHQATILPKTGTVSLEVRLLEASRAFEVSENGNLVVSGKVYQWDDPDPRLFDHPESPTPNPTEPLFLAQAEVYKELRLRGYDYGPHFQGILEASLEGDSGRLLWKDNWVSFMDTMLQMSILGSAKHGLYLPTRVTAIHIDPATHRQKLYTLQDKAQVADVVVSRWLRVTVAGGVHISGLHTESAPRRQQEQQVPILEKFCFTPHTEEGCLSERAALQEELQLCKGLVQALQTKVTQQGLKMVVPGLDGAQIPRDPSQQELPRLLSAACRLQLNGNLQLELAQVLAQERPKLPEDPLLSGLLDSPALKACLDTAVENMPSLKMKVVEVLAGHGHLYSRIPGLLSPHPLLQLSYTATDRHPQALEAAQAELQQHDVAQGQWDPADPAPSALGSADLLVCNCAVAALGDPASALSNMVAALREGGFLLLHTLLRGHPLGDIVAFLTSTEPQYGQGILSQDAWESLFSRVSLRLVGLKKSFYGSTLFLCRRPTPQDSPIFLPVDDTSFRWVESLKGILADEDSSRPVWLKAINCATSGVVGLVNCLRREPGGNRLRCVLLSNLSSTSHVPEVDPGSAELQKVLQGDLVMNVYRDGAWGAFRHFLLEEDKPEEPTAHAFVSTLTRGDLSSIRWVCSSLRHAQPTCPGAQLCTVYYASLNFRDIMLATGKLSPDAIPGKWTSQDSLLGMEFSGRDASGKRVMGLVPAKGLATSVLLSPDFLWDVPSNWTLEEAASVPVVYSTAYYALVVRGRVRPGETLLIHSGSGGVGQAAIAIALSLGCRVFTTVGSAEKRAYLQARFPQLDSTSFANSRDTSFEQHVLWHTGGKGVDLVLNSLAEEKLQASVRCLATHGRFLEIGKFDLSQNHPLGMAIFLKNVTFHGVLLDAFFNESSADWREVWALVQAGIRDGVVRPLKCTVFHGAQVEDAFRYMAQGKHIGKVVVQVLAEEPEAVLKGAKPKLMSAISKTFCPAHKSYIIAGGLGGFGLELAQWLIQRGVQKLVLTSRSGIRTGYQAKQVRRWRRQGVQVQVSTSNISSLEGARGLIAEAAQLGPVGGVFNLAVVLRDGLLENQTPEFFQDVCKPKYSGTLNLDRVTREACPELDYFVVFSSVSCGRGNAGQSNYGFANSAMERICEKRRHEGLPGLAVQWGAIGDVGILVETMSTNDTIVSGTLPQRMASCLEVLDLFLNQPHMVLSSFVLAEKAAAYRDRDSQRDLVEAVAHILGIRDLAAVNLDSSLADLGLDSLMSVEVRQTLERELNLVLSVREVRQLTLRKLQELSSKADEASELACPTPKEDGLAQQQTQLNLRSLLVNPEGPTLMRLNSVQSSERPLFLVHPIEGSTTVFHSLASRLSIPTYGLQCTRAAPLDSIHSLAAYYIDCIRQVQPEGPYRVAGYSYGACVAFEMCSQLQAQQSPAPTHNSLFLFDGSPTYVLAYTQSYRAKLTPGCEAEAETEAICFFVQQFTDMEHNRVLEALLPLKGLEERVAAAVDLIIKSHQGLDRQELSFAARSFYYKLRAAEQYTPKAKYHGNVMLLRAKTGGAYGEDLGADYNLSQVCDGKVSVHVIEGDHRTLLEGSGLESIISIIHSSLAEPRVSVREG
In short: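 Compounds at 0.01–30 μM were mixed with 300 ng purified full-length enzyme in 100 mM KH2PO4 pH 7.5, 1 mM DTT. Substrates ³H-acetyl-CoA and malonyl-CoA were then converted, and bead addition stopped the reaction. Signal was normalised to low and high plate controls and fitted by 4-parameter nonlinear regression.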

[5] = target: Fatty Acid Synthase Keto-reductase Domain (FASN KR) (Homo sapiens, UniProt P49327); assay: Fatty Acid Synthase keto-reductase domain (FASN KR) inhibition, NADPH oxidation at 340 nm
Fatty Acid Synthase Keto-reductase Domain (FASN KR), sequence (P49327 whole entry, the tested form may be a part): as the sequence (P49327 whole entry) above
Description: After 20 minutes incubation at room temperature the plate was measured again (T2).
The decrease in absorbance was calculated as (Absorbance before incubation T1)−(Absorbance following incubation T2).
A plot of Controlmin versus test compound concentration was fitted to a 4-parameter logistic curve using a non-linear least squares regression method.

Compound	IC50 (A2780 ovarian cells [1])	IC50 (A2780 ovarian cells [2])	IC50 [3]	inhibition at 10 µM [4]	IC50 [4]	IC50 [5]
Cc1cc(-c2ccc3occc3c2)ccc1C1=NC2(CCCC2)C(=O)N1C[C@@H]1CCN(C(=O)C2CC2)C1 [compound 72, 2-[4-(1-Benzofuran-5-yl)-2-methylphenyl]-3-{[(3R)-1-(cyclopropylcarbonyl)pyrrolidin-3-yl]methyl}-1,3-diazaspiro[4.4]non-1-en-4-one]	> 10000 nM	1380 nM	–	106%	47.9 nM	174 nM
O=C(C1CC1)N1CC[C@@H](CN2C(=O)C3(CCN(Cc4ccccc4)CC3)N=C2c2ccc(-c3ccc4[nH]ccc4c3)cc2)C1 [compound 63, (R)-2-(4-(1H-Indol-5-yl)phenyl)-8-benzyl-3-((1-(cyclopropanecarbonyl)pyrrolidin-3-yl)methyl)-1,3,8-triazaspiro[4.5]dec-1-en-4-one]	> 10000 nM	75.9 nM	–	115%	74.1 nM	85.1 nM
Cn1ncc2ccc(-c3ccc(C4=NC5(CC5)C(=O)N4CC4CN(C(=O)C5CC5)C4)cc3)cc21 [compound 38, 6-{[1-(Cyclopropylcarbonyl)azetidin-3-yl]methyl}-5-[4-(1-methyl-1H-indazol-6-yl)phenyl]-4,6-diazaspiro[2.4]hept-4-en-7-one]	> 10000 nM	1200 nM	–	94.9%	269 nM	646 nM
O=C(C1CC1)N1CC[C@@H](CN2C(=O)C3(CC3)N=C2c2ccc(-c3ccc4ccncc4c3)cc2)C1 [compound 30, 6-{[(3R)-1-(Cyclopropylcarbonyl)pyrrolidin-3-yl]methyl}-5-(4-isoquinolin-7-ylphenyl)-4,6-diazaspiro[2.4]hept-4-en-7-one]	> 10000 nM	380 nM	–	108%	57.5 nM	282 nM
O=C(C1CC1)N1CC[C@@H](CN2C(=O)C3(CCCC3)N=C2c2ccc(-c3cccc4[nH]ccc34)cc2)C1 [compound 68, 3-{[(3R)-1-(Cyclopropylcarbonyl)pyrrolidin-3-yl]methyl}-2-[4-(1H-indol-4-yl)phenyl]-1,3-diazaspiro[4.4]non-1-en-4-one]	> 10000 nM	339 nM	–	107%	63.1 nM	162 nM
O=C(C1CC1)N1CC[C@@H](CN2C(=O)C3(CCCC3)N=C2c2ccc(-c3ccc(Cl)cc3)cc2)C1 [compound 82]	> 10000 nM	3720 nM	–	105%	214 nM	1200 nM
O=C(C1CC1)N1CCC(CN2C(=O)C3(CC3)N=C2c2ccc(-c3ccc4scnc4c3)cc2)CC1 [compound 57, 5-[4-(1,3-Benzothiazol-5-yl)phenyl]-6-{[1-(cyclopropylcarbonyl)piperidin-4-yl]methyl}-4,6-diazaspiro[2.4]hept-4-en-7-one]	> 10000 nM	2510 nM	–	88.1%	759 nM	1700 nM
O=C(C1CC1)N1CC[C@@H](CN2C(=O)C3(CCCC3)N=C2c2ccc(-c3ccc4cc[nH]c4c3)cc2)C1 [compound 33, 3-{[(3R)-1-(Cyclopropylcarbonyl)pyrrolidin-3-yl]methyl}-2-[4-(1H-indol-6-yl)phenyl]-1,3-diazaspiro[4.4]non-1-en-4-one]	> 10000 nM	251 nM	–	109%	25.7 nM	56.2 nM
N#Cc1ccc(-c2ccc(C3=NC4(CC4)C(=O)N3CC3CN(C(=O)C4CC4)C3)cc2)cc1 [compound 41, 4′-(6-{[1-(Cyclopropylcarbonyl)azetidin-3-yl]methyl}-7-oxo-4,6-diazaspiro[2.4]hept-4-en-5-yl)biphenyl-4-carbonitrile]	> 10000 nM	1200 nM	–	92.6%	457 nM	851 nM
O=C(C1CC1)N1CC[C@@H](CN2C(=O)C3(CC3)N=C2c2ccc(-c3cccc(O)c3)cc2)C1 [compound 115, 6-{[(3R)-1-(Cyclopropylcarbonyl)pyrrolidin-3-yl]methyl}-5-(3′-hydroxybiphenyl-4-yl)-4,6-diazaspiro[2.4]hept-4-en-7-one]	> 10000 nM	~61.7 nM	–	113%	30.2 nM	123 nM
COc1ccc(-c2ccc(C3=NC4(CC4)C(=O)N3C[C@@H]3CCN(C(=O)C4CC4)C3)cc2)cc1 [compound 103, 6-{[(3R)-1-(Cyclopropylcarbonyl)pyrrolidin-3-yl]methyl}-5-(4′-methoxybiphenyl-4-yl)-4,6-diazaspiro[2.4]hept-4-en-7-one]	> 10000 nM	851 nM	–	109%	67.6 nM	316 nM

Further lines, results first:

IC50 (A2780 ovarian cells [1])	IC50 (A2780 ovarian cells [2])	IC50 [3]	inhibition at 10 µM [4]	IC50 [4]	IC50 [5]	Compound
> 10000 nM	708 nM	2340 nM	–	–	–	Cn1ncc2cc(-c3ccc(C4=NC5(CCOC5)C(=O)N4C[C@@H]4CCN(C(=O)C5CC5)C4)cc3)ccc21 (stereo partly drawn) [compound 690, 3-{[(3R)-1-(Cyclopropylcarbonyl)pyrrolidin-3-yl]methyl}-2-[4-(1-methyl-1H-indazol-5-yl)phenyl]-7-oxa-1,3-diazaspiro[4.4]non-1-en-4-one]
> 10000 nM	~692 nM	–	113%	25.7 nM	69.2 nM	Cc1cc(-c2ccc3occc3c2)ccc1C1=NC2(CC2)C(=O)N1C[C@@H]1CCN(C(=O)C2CC2)C1 [compound 278, (R)-5-(4-(benzofuran-5-yl)-2-methylphenyl)-6-((1-(cyclopropanecarbonyl)pyrrolidin-3-yl)methyl)-4,6-diazaspiro[2.4]hept-4-en-7-one]
> 10000 nM	372 nM	–	98%	148 nM	1020 nM	COCc1nn(C)c2ccc(-c3ccc(C4=NC5(CC5)C(=O)N4CC4CN(C(=O)C5CC5)C4)c(F)c3)cc12 [compound 608, 6-{[1-(Cyclopropylcarbonyl)azetidin-3-yl]methyl}-5-{2-fluoro-4-[3-(methoxymethyl)-1-methyl-01H-indazol-5-yl]phenyl}-4,6-diazaspiro[2.4]hept-4-en-7-one]
> 10000 nM	~282 nM	–	110%	43.7 nM	166 nM	Cc1cc(-c2ccc3occc3c2)ccc1C1=NC2(CC2)C(=O)N1CC1CN(C(=O)C2CC2)C1 [compound 287, 5-(4-(benzofuran-5-yl)-2-methylphenyl)-6-((1-(cyclopropanecarbonyl)azetidin-3-yl)methyl)-4,6-diazaspiro[2.4]hept-4-en-7-one]
–	–	2820 nM	–	–	–	O=C([C@H]1CCCO1)N1CC[C@@H](CN2C(=O)C3(CCOCC3)N=C2c2ccc(-c3ccc4occc4c3)cc2)C1 [compound 669, 2-[4-(1-Benzofuran-5-yl)phenyl]-3-({(3R)-1-[(2R)-tetrahydro-furan-2-ylcarbonyl]pyrrolidin-3-yl}methyl)-8-oxa-1,3-diazaspiro[4.5]dec-1-en-4-one]
> 10000 nM	52.5 nM	–	103%	89.1 nM	170 nM	O=C(C1CC1)N1CC[C@H](CN2C(=O)C3(CC3)N=C2c2ccc(-c3ccc4[nH]ccc4c3)cc2)C1 [compound 210, (S)-5-(4-(1H-indol-5-yl)phenyl)-6-((1-(cy7clopropanecarbonyl)pyrrolidin-3-yl)methyl)-4,6-diazaspiro[2.4]hept-4-en-7-one]
> 10000 nM	~2450 nM	–	100%	269 nM	1050 nM	Cc1cc(-c2ccc3c(c2)OCO3)ccc1C1=NC2(CCCC2)C(=O)N1C[C@@H]1CCN(C(=O)C2CC2)C1 [compound 883, (R)-2-(4-(benzo[d][1,3]dioxol-5-yl)-2-methylphenyl)-3-((1-(cyclopropanecarbonyl)pyrrolidin-3-yl)methyl)-1,3-diazaspiro[4.4]non-1-en-4-one]
